This passage reports minimal effective concentration results from patent US11331369B2, “Endoparasitic depsipeptides” (Zoetis Services LLC, priority 2017, dated 2022).

Molecules are shown by their SMILES.

For assay [1], the system named is microfilariae of Dirofilaria immitis. Nature of the assay: Dirofilaria immitis, Microfilaria (DiMF) In vitro Assay. The settings on record: 72 h, read-out: DiMF Minimum Effective Dose (MED), approximately 72 hours incubation, microfilariae assessed for survival or paralysis. Type of assay: cell-based.
Assay [2] has as its system 4th stage larvae (L4) of Dirofilaria immitis. The experiment in a line: Dirofilaria immitis, L4 Stage (DiL4) In Vitro Assay. The format is cell-based. The note with it: Dirofilaria immitis, 72 h, read-out: DiL4 Minimum Effective Dose (MED), approximately 72 hours incubation; L4 larvae assessed for survival or paralysis.

Consider `CC#Cc1cnn(Cc2ccc(C[C@H]3OC(=O)[C@H](CC(C)C)N(C)C(=O)[C@@H](C)OC(=O)[C@H](CC(C)C)N(C)C(=O)[C@@H](Cc4ccccc4)OC(=O)[C@H](CC(C)C)N(C)C(=O)[C@@H](C)OC(=O)[C@H](CC(C)C)N(C)C3=O)cc2)c1` [Example 2-76, (3S,6R,9S,12R,15S,18R,21S,24R)-6-benzyl-3,9,15,21-tetraisobutyl-4,10,12,16,22,24-hexamethyl-18-(4-((4-(prop-1-yn-1-yl)-1H-pyrazol-1-yl)methyl)benzyl)-1,7,13,19-tetraoxa-4,10,16,22-tetraazacyclotetracosan-2,5,8,11,14,17,20,23-octaone], for which the figures for the minimal effective concentration in assay [1] and in assay [2] were 0.001 to 0.01 µM and 0.0001 to 0.001 µM, respectively.
On the same counts, the results for `CC(C)C[C@H]1C(=O)O[C@H](Cc2ccc(Cn3nc(C#N)cc3C#N)cc2)C(=O)N(C)[C@@H](CC(C)C)C(=O)O[C@H](C)C(=O)N(C)[C@@H](CC(C)C)C(=O)O[C@H](Cc2ccccc2)C(=O)N(C)[C@@H](CC(C)C)C(=O)O[C@H](C)C(=O)N1C` [Example 2-62, 1-(4-(((2R,5S,8R,11S,14R,17S,20R,23S)-14-benzyl-5,11,17,23-tetraisobutyl-4,8,10,16,20,22-hexamethyl-3,6,9,12,15,18,21,24-octaoxo-1,7,13,19-tetraoxa-4,10,16,22-tetraazacyclotetracosan-2-yl)methyl)benzyl)-1H-pyrazole-3,5-dicarbonitrile] are 0.001 to 0.01 µM and 0.0001 to 0.001 µM.
On to `CC(C)C[C@H]1C(=O)O[C@H](Cc2ccc(Cn3nc(C(F)F)cc3C3CC3)cc2)C(=O)N(C)[C@@H](CC(C)C)C(=O)O[C@H](C)C(=O)N(C)[C@@H](CC(C)C)C(=O)O[C@H](Cc2ccc(Cn3nc(C#N)cc3C#N)cc2)C(=O)N(C)[C@@H](CC(C)C)C(=O)O[C@H](C)C(=O)N1C` [Example 1a-7, 1-(4-(((2R,5S,8R,11 S,14R,17S,20R,23S)-14-(4-((5-cyclopropyl-3-(difluoromethyl)-1H-pyrazol-1-yl)methyl)benzyl)-5,11,17,23-tetraisobutyl-4,8,10,16,20,22-hexamethyl-3,6,9,12,15,18,21,24-octaoxo-1,7,13,19-tetraoxa-4,10,16,22-tetraazacyclotetracosan-2-yl)methyl)benzyl)-1H-pyrazole-3,5-dicarbonitrile], for which the minimal effective concentration in assay [1] is 0.001 to 0.01 µM; in assay [2] it was ≤ 0.0001 µM.
Take `CC(C)C[C@H]1C(=O)O[C@H](Cc2ccc(Cn3cc(COC(C)C)cn3)cc2)C(=O)N(C)[C@@H](CC(C)C)C(=O)O[C@H](C)C(=O)N(C)[C@@H](CC(C)C)C(=O)O[C@H](Cc2ccc(Cn3cc(COC(C)C)cn3)cc2)C(=O)N(C)[C@@H](CC(C)C)C(=O)O[C@H](C)C(=O)N1C` [Example 1b-184, (3S,6R,9S,12R,15S,18R,21S,24R)-3,9,15,21-tetraisobutyl-6,18-bis(4-((4-(isopropoxymethyl)-1H-pyrazol-1-yl)methyl)benzyl)-4,10,12,16,22,24-hexamethyl-1,7,13,19-tetraoxa-4,10,16,22-tetraazacyclotetracosan-2,5,8,11,14,17,20,23-octaone]: the minimal effective concentration in assay [1] and in assay [2] was 0.001 to 0.01 µM in each case.
`CC(C)C[C@H]1C(=O)O[C@H](Cc2ccc(Cn3cc(Oc4nccs4)cn3)cc2)C(=O)N(C)[C@@H](CC(C)C)C(=O)O[C@H](C)C(=O)N(C)[C@@H](CC(C)C)C(=O)O[C@H](Cc2ccc(Cn3cc(Oc4nccs4)cn3)cc2)C(=O)N(C)[C@@H](CC(C)C)C(=O)O[C@H](C)C(=O)N1C` [Example 1b-174, (3S,6R,9S,12R,15S,18R,21S,24R)-3,9,15,21-tetraisobutyl-4,6,10,16,18,22-hexamethyl-12,24-bis(4-((4-(thiazol-2-yloxy)-1H-pyrazol-1-yl)methyl)benzyl)-1,7,13,19-tetraoxa-4,10,16,22-tetraazacyclotetracosan-2,5,8,11,14,17,20,23-octaone]: the minimal effective concentration in assay [1] and in assay [2] was 0.001 to 0.01 µM in each case.
Consider `CC(C)C[C@H]1C(=O)O[C@H](Cc2ccc(Cn3ccnc3C(F)(F)F)cc2)C(=O)N(C)[C@@H](CC(C)C)C(=O)O[C@H](C)C(=O)N(C)[C@@H](CC(C)C)C(=O)O[C@H](Cc2ccccc2)C(=O)N(C)[C@@H](CC(C)C)C(=O)O[C@H](C)C(=O)N1C` [Example 8-12, (3S,6R,9S,12R,15S,18R,21S,24R)-6-benzyl-3,9,15,21-tetraisobutyl-4,10,12,16,22,24-hexamethyl-18-(4-((2-(trifluoromethyl)-1H-imidazol-1-yl)methyl)benzyl)-1,7,13,19-tetraoxa-4,10,16,22-tetraazacyclotetracosan-2,5,8,11,14,17,20,23-octaone], for which the minimal effective concentration lay in the range of 0.001 to 0.01 µM in assay [1] and 0.0001 to 0.001 µM in assay [2].
As for `CC(C)C[C@H]1C(=O)O[C@H](Cc2ccc(Cn3cc(C#N)cn3)cc2)C(=O)N(C)[C@@H](CC(C)C)C(=O)O[C@H](C)C(=O)N(C)[C@@H](CC(C)C)C(=O)O[C@H](Cc2ccccc2)C(=O)N(C)[C@@H](CC(C)C)C(=O)O[C@H](C)C(=O)N1C` [Example 2-10, 1-(4-(((2R,5S,8R,11S,14R,17S,20R,23S)-14-benzyl-5,11,17,23-tetraisobutyl-4,8,10,16,20,22-hexamethyl-3,6,9,12,15,18,21,24-octaoxo-1,7,13,19-tetraoxa-4,10,16,22-tetraazacyclotetracosan-2-yl)methyl)benzyl)-1H-pyrazole-4-carbonitrile], the figures for the minimal effective concentration in assay [1] and in assay [2] were 0.001 to 0.01 µM and 0.0001 to 0.001 µM, respectively.
As to `CC(C)C[C@H]1C(=O)O[C@H](Cc2ccc(Cn3nccc3-c3ccccc3)cc2)C(=O)N(C)[C@@H](CC(C)C)C(=O)O[C@H](C)C(=O)N(C)[C@@H](CC(C)C)C(=O)O[C@H](Cc2ccc(Cn3nc(C#N)cc3C#N)cc2)C(=O)N(C)[C@@H](CC(C)C)C(=O)O[C@H](C)C(=O)N1C` [Example 1a-12, 1-(4-(((2R,5S,8R,11S,14R,17S,20R,23S)-5,11,17,23-tetraisobutyl-4,8,10,16,20,22-hexamethyl-3,6,9,12,15,18,21,24-octaoxo-14-(4-((5-phenyl-1H-pyrazol-1-yl)methyl)benzyl)-1,7,13,19-tetraoxa-4,10,16,22-tetraazacyclotetracosan-2-yl)methyl)benzyl)-1H-pyrazole-3,5-dicarbonitrile], the minimal effective concentration was in the range of 0.01 to 0.1 µM in assay [1] and 0.0001 to 0.001 µM in assay [2].
In the case of `CC(C)C[C@H]1C(=O)O[C@H](Cc2ccc(Cn3nccc3-c3ccccc3)cc2)C(=O)N(C)[C@@H](CC(C)C)C(=O)O[C@H](C)C(=O)N(C)[C@@H](CC(C)C)C(=O)O[C@H](Cc2ccc(Cn3nccc3-c3ccccc3)cc2)C(=O)N(C)[C@@H](CC(C)C)C(=O)O[C@H](C)C(=O)N1C` [Example 1b-128, (3S,6R,9S,12R,15S,18R,21S,24R)-3,9,15,21-tetraisobutyl-4,6,10,16,18,22-hexamethyl-12,24-bis(4-((5-phenyl-1H-pyrazol-1-yl)methyl)benzyl)-1,7,13,19-tetraoxa-4,10,16,22-tetraazacyclotetracosan-2,5,8,11,14,17,20,23-octaone], the minimal effective concentration in assay [1] was 0.01 to 0.1 µM; in assay [2], 0.001 to 0.01 µM.
